The target in one experiment is c-Src (Gallus gallus, UniProt P00523). As to the kind of experiment: In vitro kinase assay (32P peptide phosphorylation), WT Src. The class given is biochemical.
A further experiment addresses T1, Abl (Homo sapiens, UniProt P00519).
T1 sequence (P00519 242-493 limits assumed): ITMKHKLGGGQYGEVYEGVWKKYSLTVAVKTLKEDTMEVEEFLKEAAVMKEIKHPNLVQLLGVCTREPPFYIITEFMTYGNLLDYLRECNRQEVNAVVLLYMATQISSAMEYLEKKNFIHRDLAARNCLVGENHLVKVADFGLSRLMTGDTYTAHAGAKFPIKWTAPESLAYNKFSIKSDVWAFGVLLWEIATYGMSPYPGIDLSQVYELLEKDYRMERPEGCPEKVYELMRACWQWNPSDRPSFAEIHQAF
Nature of the experiment: In vitro kinase assay (32P peptide phosphorylation), WT Abl. The class given is biochemical.

The target in another experiment is T2, T315I Abl (Homo sapiens, UniProt P00519, T315I).
T2 sequence (P00519 242-493 T315I limits assumed): T1 sequence (P00519 242-493 limits assumed) with T74I
As to the kind of experiment: In vitro kinase assay, T315I Abl. As to conditions: Table 1b. The experiment is classed as biochemical. As for the experimental part: (§1) Kinase reactions were initiated by the addition of […] cold ATP supplemented with 5 mCi γ^32P ATP and allowed to proceed at room temperature (RT). At 10 minutes […] of the reactions were spotted onto phosphocellulose sheets (P81, Whatman) and subsequently soaked in wash buffer (1.0% (v/v) phosphoric acid). The sheets were washed five times in buffer, dried, and transferred radioactivity was measured by phosphorimaging using a TyphoonTM scanner (Molecular Dynamics). Radioactive counts were quantified using ImageQuantTM software, and titration data were fit to a sigmoidal dose response to derive IC50 values using the Prism® software package. Dose responses were based on a 12 point inhibitor titration, using 1⁄3 dilutions starting from […]. Experiments were completed 2-4 times to derive mean values.

In another experiment the target is T338G Src (Gallus gallus, UniProt P00523, T338G). Nature of the experiment: In vitro kinase assay, T338G Src. The experiment is classed as biochemical. Here is the method: as §1
A further experiment deals with T3, T315A Abl (Homo sapiens, UniProt P00519, T315A).
T3 sequence (P00519 242-493 T315A limits assumed): T1 sequence (P00519 242-493 limits assumed) with T74A
Nature of the experiment: In vitro kinase assay, T315A Abl. The class given is biochemical. As for the experimental part:
as §1

Experiment [1] relates to Bcr-Abl transduced BaF3 cells. As to the kind of experiment: Cell proliferation (Resazurin) of Bcr-Abl transduced BaF3 cells. The experiment is classed as cell-based. As to conditions: two day treatment, without IL-3.
Source text: The Bcr-Abl oncogene was transduced into BaF3 cells, rendering them IL-3-independent. “IL-3” refers to interleukin 3 which in human maps to gene locus 5q31.1, as known in the art. Recombinant IL-3 is available commercially. BaF3 is a hematopoietic cell line that is normally dependent on IL-3 for growth and proliferation. However, through expression of activated Bcr-Abl, the cells become transformed to an IL-3 independent state. In this assay, cell proliferation is directly correlated to the activity of Bcr-Abl. […] The parental BaF3 cells, but not the Bcr-Abl transduced cells, were grown in the presence of recombinant IL-3 during the time course of this experiment. After the two day treatment, cell proliferation was quantified using the dye Resazurin, which is converted into a fluorescently detectable form only when metabolized by living cells.
Another experiment relates to parental BaF3 cells. Nature of the experiment: Cell proliferation (Resazurin) of parental BaF3 cells. The experiment is classed as cell-based. The settings on record: grown with recombinant IL-3; especially at 1 mM inhibitor. An excerpt:
The ability of AD57 to inhibit Bcr-Abl and T315I Bcr-Abl was examined in a cell based assay. The Bcr-Abl oncogene was transduced into BaF3 cells, rendering them IL-3-independent. “IL-3” refers to interleukin 3 which in human maps to gene locus 5q31.1, as known in the art. Recombinant IL-3 is available commercially. BaF3 is a hematopoietic cell line that is normally dependent on IL-3 for growth and proliferation. However, through expression of activated Bcr-Abl, the cells become transformed to an IL-3 independent state. In this assay, cell proliferation is directly correlated to the activity of Bcr-Abl. Wild-type Bcr-Abl, T315I Bcr-Abl, and parental BaF3 cells were treated with AD57 (Cmpd 5) at the indicated concentrations for two days. The parental BaF3 cells, but not the Bcr-Abl transduced cells, were grown in the presence of recombinant IL-3 during the time course of this experiment. After the two day treatment, cell proliferation was quantified using the dye Resazurin, which is converted into a fluorescently detectable form only when metabolized by living cells.
It is possible to inhibit the growth of BaF3 cells transduced with Bcr-Abl through non-specific inhibition mediated toxicity. Therefore, the effects of the inhibitors on the growth of parental BaF3 cells have also been measured.

Setting [2] is: Table 1b, read-out: IC50 WT Src.
Setting [3] is: Table 1b, read-out: IC50 WT Abl.
The mark [4] stands for this setting: unphosphorylated kinase domain, 100 mM ATP, read-out: IC50 for c-Src.
Setting [5] is: Table 1a, read-out: IC50 WT Src.
[6] abbreviates: Table 1a, read-out: IC50 WT Abl.

SMILES strings stand for the structures. Changes are numbered by the printed parent chain. Read-outs that look alike come from different tables or passages of the source. A value given as a limit tells only on which side of the number the result lay.

With `CC(C)n1nc(-c2ccc(NC(=O)Nc3ccccc3)cc2)c2c(N)ncnc21` [AD58], the IC50 at c-Src (setting [2]), at Abl (setting [3]) and on T315I Abl was < 1000 nM in each case.
In the case of `CC(C)n1nc(-c2ccc(NC(=O)Nc3cccc(C(F)(F)F)c3)cc2)c2c(NC(=O)C3CCCC3)ncnc21` [AD62], the IC50 on c-Src (setting [2]), on T338G Src (Table 1b), on Abl (setting [3]), on T315A Abl (Table 1b) and against T315I Abl was < 1000 nM in each case.
In the case of `CC(C)n1nc(-c2ccc(NC(=O)Nc3cccc(C(F)(F)F)c3)cc2)c2c(NC(=O)C3CC3)ncnc21` [AD61], the half-inhibitory concentration (IC50) on c-Src (setting [2]), at T338G Src (Table 1b), on Abl (setting [3]), against T315A Abl (Table 1b) and on T315I Abl was < 1000 nM in each case.
Regarding `CC(C)n1nc(-c2ccc(NC(=O)Nc3cccc(C(F)(F)F)c3)cc2)c2c(N)ncnc21` [AD57, 1-(4-(4-amino-1-isopropyl-1H-pyrazolo[3,4-d]pyrimidin-3-yl)phenyl)-3-(3-(trifluoromethyl)phenyl)urea], the IC50 was < 1000 nM on c-Src (setting [2]); 25 nM at c-Src (setting [4]); < 1000 nM at T338G Src (Table 1b); < 1000 nM on Abl (setting [3]); 41 nM on Abl (unphosphorylated kinase domain, 100 mM ATP, read-out: IC50 for Abl); < 1000 nM against T315I Abl. The “inhibition of growth of Bcr-Abl BaF3 cells” value in experiment [1] was “equally inhibits the growth”. Moreover, in the experiment with parental BaF3 cells, the “inhibition of growth of parental BaF3 cells” value was “but not parental BaF3 cells”.
On to `CC(C)n1nc(Cc2cccc(NC(=O)Nc3cccc(C(F)(F)F)c3)c2)c2c(N)ncnc21` [AD36, 1-(3-((4-amino-1-isopropyl-1H-pyrazolo[3,4-d]pyrimidin-3-yl)methyl)phenyl)-3-(3-(trifluoromethyl)phenyl)urea], for which the IC50 on c-Src (setting [5]) was 1000 to 5000 nM; against T338G Src (Table 1a), < 1000 nM; on Abl (setting [6]) it was 1000 to 5000 nM; against T315A Abl (Table 1a), < 1000 nM.
Consider `CC(C)n1nc(-c2ccc(NC(=O)Nc3cccc(C(F)(F)F)c3)cc2)c2c(NC(=O)c3ccc(C(C)(C)C)cc3)ncnc21` [AD63], for which the half-maximal inhibitory concentration (IC50) on c-Src (setting [2]) was > 5000 nM; at T338G Src (Table 1b), 1000 to 5000 nM; at Abl (setting [3]), > 5000 nM; at T315A Abl (Table 1b), > 5000 nM; at T315I Abl, < 1000 nM.
Consider `Cn1nc(-c2ccc(NC(=O)Nc3cccc(C(F)(F)F)c3)cc2)c2c(N)ncnc21` [AD59, 1-(4-(4-amino-1-methyl-1H-pyrazolo[3,4-d]pyrimidin-3-yl)phenyl)-3-(3-(trifluoromethyl)phenyl)urea], for which the half-inhibitory concentration (IC50) on Abl (setting [3]) and on T315I Abl was < 1000 nM each time.
On to `Cn1nc(Cc2cccc(NC(=O)Nc3cccc(C(F)(F)F)c3)c2)c2c(N)ncnc21` [AD16, 1-(3-((4-amino-1-methyl-1H-pyrazolo[3,4-d]pyrimidin-3-yl)methyl)phenyl)-3-(3-(trifluoromethyl)phenyl)urea], for which the IC50 is 1000 to 5000 nM on c-Src (setting [5]); ~6200 nM on c-Src (setting [4]); < 1000 nM against T338G Src (Table 1a); 1000 to 5000 nM at Abl (setting [6]); 1000 to 5000 nM against T315A Abl (Table 1a).
As to `Nc1ncnc2c1c(-c1ccc(NC(=O)Nc3cccc(C(F)(F)F)c3)cc1)nn2C1CCCC1` [AD60, 1-(4-(4-amino-1-cyclopentyl-1H-pyrazolo[3,4-d]pyrimidin-3-yl)phenyl)-3-(3-(trifluoromethyl)phenyl)urea], the IC50 at Abl (setting [3]) and at T315I Abl was < 1000 nM in each case.

(Values after patent US8697709B2, “Fused ring heteroaryl kinase inhibitors” (The Regents of the University of California, priority 2008, dated 2014).)
